We go through 20 compounds from PubChem BioAssay (NCI).

Test systems include DMS 273 small cell lung; M19-MEL melanoma; LXFL 529 NSCLC; KM20L2 colon; MDA-N; MDA-MB-231 breast; BT-549 breast; PC-3 prostate; RXF-631 renal.
Holding throughout (test): NCI-60 cell line screen, 48 h

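Test compounds were applied to cells in 96-well plates for 48 hours at 5 doses. TGI is the concentration that stops growth completely.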 A value given as a limit tells only on which side of the number the result lay.

As to `CC(C)(C)NCC(COc1ccc([N+](=O)[O-])cc1)OP(c1ccccc1)c1ccccc1` (configuration not stated), the TGI with DMS 273 small cell lung, in the experiment on M19-MEL melanoma, in the experiment with LXFL 529 NSCLC and in the experiment with KM20L2 colon was over 100 µM each time.

For the compound `Cc1cccc(C)c1N1C(=O)C(=O)C(c2nc3ccccc3s2)C(=Nc2cccc3c(=O)[nH][nH]c(=O)c23)C1=O` (configuration not stated), the TGI in the experiment on DMS 273 small cell lung, in the experiment with M19-MEL melanoma, in the experiment on LXFL 529 NSCLC and in the experiment with KM20L2 colon was over 100 µM in each case.

On to `CC1=NN(C(=O)c2ccncc2)C(=O)C1N=Nc1ccc(F)cc1` (configuration not stated), for which the TGI in the experiment with DMS 273 small cell lung, in the experiment with M19-MEL melanoma, with LXFL 529 NSCLC and in the experiment with KM20L2 colon was over 100 µM each time.

`O=C(CC1(O)C(=O)Nc2c(Cl)ccc(Cl)c21)c1ccc(Cl)cc1Cl` (configuration not stated): the TGI in the experiment with DMS 273 small cell lung is 37.8 µM; in the experiment on M19-MEL melanoma, 20.1 µM; with LXFL 529 NSCLC it was 29.3 µM; in the experiment with KM20L2 colon, over 100 µM.

As for `Cc1c(C)c(CC(=O)N2CC2)c(C)c(C)c1CC(=O)N1CC1`, the TGI in the experiment on MDA-N was determined as 34.2 µM; in the experiment on MDA-MB-231 breast it was 48.1 µM; in the experiment with DMS 273 small cell lung, 13.2 µM; in the experiment on M19-MEL melanoma, 27.4 µM; in the experiment with BT-549 breast it was 51.4 µM; with LXFL 529 NSCLC it was 37.9 µM. In addition, the TGI in the experiment with PC-3 prostate is 58.2 µM; in the experiment with KM20L2 colon it was 47.3 µM.

`CC1(C)CC(=O)C(CC2C(=O)c3ccccc3C2=O)C(=O)C1`: the TGI in the experiment with DMS 273 small cell lung, in the experiment with M19-MEL melanoma, in the experiment with LXFL 529 NSCLC and in the experiment on KM20L2 colon was over 100 µM throughout.

As for `C=C1C(=O)C23C(O)C1CC[C@H]2C12CCCC(C)(COC(C)=O)[C@H]1[C@H](O)[C@]3(O)OC2` (some centres not stated), the TGI with DMS 273 small cell lung was 4.22 µM; in the experiment with M19-MEL melanoma, 4.69 µM; in the experiment on BT-549 breast it was 2.86 µM; with LXFL 529 NSCLC, 1.69 µM; in the experiment with PC-3 prostate, 3.78 µM; with KM20L2 colon, 3.01 µM.

As to `O=C1C2=C(CCC2)Nc2cccc3ncn1c23`, the TGI in the experiment on DMS 273 small cell lung, in the experiment on M19-MEL melanoma, with LXFL 529 NSCLC and in the experiment on KM20L2 colon was over 100 µM each time.

`Cn1c(=O)nc2n(-c3ccc(Cl)c(C(F)(F)F)c3)c3ccccc3nc-2c1=O`: the TGI in the experiment with DMS 273 small cell lung was over 100 µM; in the experiment with M19-MEL melanoma, 27.8 µM; in the experiment with LXFL 529 NSCLC, over 100 µM; in the experiment with KM20L2 colon, 73.9 µM.

As to `Cc1nc(-c2cccnc2)sc1C(=O)/C=C/c1cccc([N+](=O)[O-])c1`, the TGI in the experiment with DMS 273 small cell lung, in the experiment with M19-MEL melanoma, in the experiment on RXF-631 renal and in the experiment with KM20L2 colon was over 100 µM each time.

As for `N#C/C(=C1\SC(N=Nc2ccc(Cl)cc2)C(=O)N1c1ccccc1)c1nc2ccccc2[nH]1` (configuration not stated), the TGI in the experiment with DMS 273 small cell lung was over 100 µM; with M19-MEL melanoma it was 95.4 µM; with LXFL 529 NSCLC it was over 100 µM; with KM20L2 colon, over 100 µM.

In the case of `CCCCCCCCCCCC1CC(=O)NCCCN(C)CCCCN(C)CCCN1C` (configuration not stated), the TGI in the experiment on DMS 273 small cell lung came out at 2.61 µM; with M19-MEL melanoma, 3.24 µM; in the experiment with LXFL 529 NSCLC it was 3.16 µM; with KM20L2 colon, 3.01 µM.

For `O=C1CNS(=O)(=O)N1`, the TGI in the experiment on DMS 273 small cell lung, in the experiment with M19-MEL melanoma and in the experiment with LXFL 529 NSCLC was over 100 µM in each case.

Consider `COc1ccc(-c2c(C3=NCCCN3)nnn2-c2ccc([N+](=O)[O-])cc2)cc1`, for which the TGI in the experiment with DMS 273 small cell lung, in the experiment with M19-MEL melanoma, in the experiment on LXFL 529 NSCLC and in the experiment on KM20L2 colon was over 100 µM each time.

For the compound `COc1ccc(C2Oc3c(c(O)cc4c3[C@H](c3ccc(O)cc3O)[C@H](O)C(c3ccc(O)c(O)c3)O4)C[C@@H]2O)cc1O` (some centres not stated), the TGI in the experiment with DMS 273 small cell lung, in the experiment with M19-MEL melanoma, in the experiment on LXFL 529 NSCLC and with KM20L2 colon was over 100 µM throughout.

As for `C=C1C2Oc3ccccc3C1N(c1ccccc1)O2` (configuration not stated), the TGI in the experiment on M19-MEL melanoma is over 100 µM; in the experiment with RXF-631 renal it was 45.6 µM; with LXFL 529 NSCLC it was over 100 µM; in the experiment on KM20L2 colon it was over 100 µM.

For `COc1ccc2c(NCCCCCCNc3c4ccccc4nc4cc(OC)ccc34)c3ccccc3nc2c1`, the TGI in the experiment on MDA-N was determined as 1.2 µM; in the experiment with MDA-MB-231 breast, 0.385 µM; with RXF-631 renal it was 3.97 µM; with BT-549 breast it was 3.18 µM; in the experiment with PC-3 prostate, 0.543 µM; in the experiment with KM20L2 colon, 1.17 µM.

As for `CC(C)(C)c1ccc(OC2CCO2)cc1` (configuration not stated), the TGI in the experiment on DMS 273 small cell lung was over 100 µM; in the experiment on M19-MEL melanoma, 56.1 µM; in the experiment on LXFL 529 NSCLC it was over 100 µM; in the experiment on KM20L2 colon it was 52.8 µM.

On to `Cc1ccc(C)c(N2C(=O)C(=O)C(c3nc4ccccc4s3)C(=Nc3cccc4c(=O)[nH][nH]c(=O)c34)C2=O)c1` (configuration not stated), for which the TGI with DMS 273 small cell lung, in the experiment on RXF-631 renal, in the experiment on LXFL 529 NSCLC and in the experiment on KM20L2 colon was over 100 µM throughout.

Consider `Cc1cccc(C)c1N1C(=O)C(=O)C(c2nc3ccccc3s2)/C(=N/NC(=O)NN)C1=O` (configuration not stated), for which the TGI with DMS 273 small cell lung, with M19-MEL melanoma, in the experiment with LXFL 529 NSCLC and in the experiment on KM20L2 colon was over 100 µM throughout.
